In ChEMBL document CHEMBL1151022, “Modified triphosphates of carbocyclic nucleoside analogues: Synthesis, stability towards alkaline phosphatase and substrate properties for some DNA polymerases” (Bioorg Med Chem Lett, 1996):

Test: Compound was evaluated for its stability to dephosphorylation.
Type: physicochemical

SMILES | half-life
Nc1ncnc2c1ncn2[C@@H]1C[C@@H](OCP(=O)(O)OP(=O)(O)O)[C@@H]2C[C@@H]21 | 270 min
Nc1nc(O)c2ncn([C@@H]3C=C[C@H](OCP(=O)(O)OP(=O)(O)C(Br)(Br)P(=O)(O)O)C3)c2n1 | > 10100 min
Nc1ncnc2c1ncn2[C@H]1C[C@H](O)[C@@H](COP(=O)(O)OP(=O)(O)OP(=O)(O)O)O1 | 50 min
Nc1ncnc2c1ncn2[C@H]1C[C@H](OCP(=O)(O)OP(=O)(O)O)[C@H]2C[C@H]21 | > 10100 min
Nc1ncnc2c1ncn2[C@@H]1C[C@@H](OCP(=O)(O)CP(=O)(O)O)[C@@H]2C[C@@H]21 | > 10100 min
Nc1ncnc2c1ncn2[C@H]1C[C@H](OCP(=O)(O)CP(=O)(O)O)[C@H]2C[C@H]21 | > 10100 min
Nc1ncnc2c1ncn2[C@@H]1C=C[C@H](OCP(=O)(O)OP(=O)(O)OP(=O)(O)O)C1 | 180 min
Nc1ncnc2c1ncn2[C@@H]1C=C[C@H](OCP(=O)(O)OP(=O)(O)C(Br)(Br)P(=O)(O)O)C1 | > 10100 min
Nc1nc(O)c2ncn([C@@H]3C=C[C@H](OCP(=O)(O)OP(=O)(O)OP(=O)(O)O)C3)c2n1 | 240 min
Nc1ncnc2c1ncn2[C@H]1C=C[C@@H](OCP(=O)(O)OP(=O)(O)OP(=O)(O)O)C1 | 120 min
Nc1nc2c(ncn2[C@H]2C[C@H](O)[C@@H](COP(=O)(O)OP(=O)(O)OP(=O)(O)O)O2)c(=O)[nH]1 [DEOXYGUANOSINE TRIPHOSPHATE] | 60 min
Cc1cn([C@H]2C[C@H](N=[N+]=[N-])[C@@H](CO[P@](=O)(O)O[P@](=O)(O)OP(=O)(O)O)O2)c(=O)[nH]c1=O [ZIDOVUDINE TRIPHOSPHATE] | < 1 min
